The data set is described as follows: activity coefficient (dimensionless); of the first substance listed, at infinite dilution; xn = mol fraction of the nth substance listed. As to conditions: 101 kPa, Liquid, dilutor technique, x1 = 0.

Numbers after ± are expanded uncertainties.

Consider `C=CCCCCCCCC` [1-decene] + CCCCCCn1cc[n+](C)c1.F[B-](F)(F)F, for which the activity coefficient runs as follows: (318.2 K) 54.6 ± 2.7; (328.16 K) 48.7 ± 2.4; (338.17 K) 46 ± 2.3.
With `C=CCCCCCCCC` [1-decene] + CCCCn1cc[n+](C)c1.F[B-](F)(F)F, the activity coefficient by setting is: (323.16 K) 224 ± 11; (333.17 K) 207 ± 10; (343.17 K) 190 ± 9.5; (353.16 K) 180 ± 9.
For `C=CCCCCC` [1-heptene] + CCCCCCn1cc[n+](C)c1.F[B-](F)(F)F, the activity coefficient reads like this: (318.11 K) 19.6 ± 0.98; (328.19 K) 19.3 ± 0.97; (338.14 K) 18.8 ± 0.94; (348.11 K) 18 ± 0.9.
With `C=CCCCCC` [1-heptene] + CCCCn1cc[n+](C)c1.F[B-](F)(F)F, the activity coefficient is, setting by setting: (323.16 K) 52 ± 2.6; (333.24 K) 50.3 ± 2.5; (343.15 K) 46.6 ± 2.3; (353.23 K) 43.2 ± 2.2.
On to `CCCCCCCCCC` [decane] + CCCCCCn1cc[n+](C)c1.F[B-](F)(F)F, for which the activity coefficient is 129 ± 6.4 (318.21 K), 115 ± 5.8 (328.16 K), 110 ± 5.5 (338.14 K) and 104 ± 5.2 (348.16 K).
Take `CCCCCCCCCC` [decane] + CCCCn1cc[n+](C)c1.F[B-](F)(F)F: the activity coefficient is 620 ± 31 (323.12 K), 443 ± 22 (343.21 K) and 383 ± 19 (353.16 K).
Regarding `CCCCCCC` [heptane] + CCCCCCn1cc[n+](C)c1.F[B-](F)(F)F, the activity coefficient (303.16 K) worked out at 45 ± 2.2; the activity coefficient (318.14 K) turned out to be 42 ± 2.1; the activity coefficient (323.27 K) came out at 41.1 ± 2; the activity coefficient (333.11 K) is 38.9 ± 1.9; the activity coefficient (343.09 K) was determined as 36.8 ± 1.8.
Take `CCCCCCC` [heptane] + CCCCn1cc[n+](C)c1.F[B-](F)(F)F: the activity coefficient was 95.8 ± 4.8 (323.16 K); 89 ± 4.5 (328.16 K); 83.8 ± 4.2 (333.14 K); 80.1 ± 4 (338.14 K); 75.3 ± 3.8 (343.22 K).
For the compound `C=CCCCC` [hex-1-ene] + CCCCCCn1cc[n+](C)c1.F[B-](F)(F)F, the activity coefficient came out at 13 ± 0.65 (318.11 K), 12.1 ± 0.61 (328.19 K), 11.9 ± 0.6 (338.17 K) and 11.4 ± 0.57 (348.15 K).
In the case of `C=CCCCC` [hex-1-ene] + CCCCn1cc[n+](C)c1.F[B-](F)(F)F, the activity coefficient (323.16 K) turned out to be 30.1 ± 1.5, the activity coefficient (333.15 K) turned out to be 27.8 ± 1.4, the activity coefficient (343.22 K) worked out at 25.7 ± 1.3 and the activity coefficient (353.14 K) worked out at 23.9 ± 1.2.
`CCCCCC` [hexane] + CCCCn1cc[n+](C)c1.F[B-](F)(F)F: the activity coefficient is, setting by setting: (323.15 K) 66.7 ± 3.3; (328.18 K) 63.3 ± 3.2; (333.2 K) 61 ± 3; (343.26 K) 54.9 ± 2.8.
As to `CCCCCCCCC` [nonane] + CCCCCCn1cc[n+](C)c1.F[B-](F)(F)F, the activity coefficient by setting is: (318.21 K) 88 ± 4.4; (328.16 K) 81.2 ± 4.1; (338.14 K) 76.7 ± 3.8; (348.16 K) 72.9 ± 3.6.
Consider `CCCCCCCCC` [nonane] + CCCCn1cc[n+](C)c1.F[B-](F)(F)F, for which the activity coefficient (323.12 K) was determined as 334 ± 17, the activity coefficient (343.21 K) was determined as 270 ± 14 and the activity coefficient (353.16 K) came to 225 ± 11.
`C=CCCCCCC` [oct-1-ene] + CCCCCCn1cc[n+](C)c1.F[B-](F)(F)F: the activity coefficient reads like this: (318.11 K) 29.4 ± 1.5; (328.19 K) 28.1 ± 1.4; (338.14 K) 27.2 ± 1.4; (348.11 K) 25.8 ± 1.3.
Turning to `C=CCCCCCC` [oct-1-ene] + CCCCn1cc[n+](C)c1.F[B-](F)(F)F, the activity coefficient (323.16 K) came out at 88.6 ± 4.4, the activity coefficient (333.24 K) turned out to be 84.8 ± 4.2, the activity coefficient (343.15 K) amounted to 78.8 ± 3.9 and the activity coefficient (353.23 K) came out at 74.2 ± 3.7.
Take `CCCCCCCC` [octane] + CCCCCCn1cc[n+](C)c1.F[B-](F)(F)F: the activity coefficient reads like this: (303.16 K) 69.6 ± 3.5; (318.14 K) 62.3 ± 3.1; (323.27 K) 59.5 ± 3; (333.11 K) 56 ± 2.8; (343.09 K) 52.5 ± 2.6.
Take `CCCCCCCC` [octane] + CCCCn1cc[n+](C)c1.F[B-](F)(F)F: the activity coefficient reads like this: (323.16 K) 170 ± 8.5; (328.16 K) 160 ± 8; (333.14 K) 155 ± 7.7; (338.14 K) 146 ± 7.3; (343.22 K) 143 ± 7.1.

The record behind these values is the NIST ThermoML archive (doi:10.1016/j.fluid.2009.05.007).
